# Like-named read-outs stand apart in the source and are kept apart here. Square brackets hold non-standard residues; d marks the D form. Ends that are not written are not given here. Peptide text beside a SMILES is read from it.
# Columns and labels:
# DRB1*1101 (DR5w11) = target: T1, DRB1*1101 (DR5w11) (Homo sapiens, UniProt P01903+P01911, A100R/A169T/A87E/I96F/K41T/L162R/M171V/P40S/Q125H/Q178H/Q39Y/Q99D/R42S/S66Y/T262R/V115G/W38E); assay: Class II peptide-binding assay, DR5w11;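 note: competition by unlabeled test peptide against iodinated probe peptide binding to affinity-purified HLA-DR, class II amount titrated beforehand, half-maximal inhibitory concentration read as approximate Kd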
# T1 construct: used as sources of human HLA class II molecules; endogenous in cells; host or cells: SWEIG (EBV-transformed homozygous B cell line)
# T1 sequence (P01903 26-254, other chains not shown): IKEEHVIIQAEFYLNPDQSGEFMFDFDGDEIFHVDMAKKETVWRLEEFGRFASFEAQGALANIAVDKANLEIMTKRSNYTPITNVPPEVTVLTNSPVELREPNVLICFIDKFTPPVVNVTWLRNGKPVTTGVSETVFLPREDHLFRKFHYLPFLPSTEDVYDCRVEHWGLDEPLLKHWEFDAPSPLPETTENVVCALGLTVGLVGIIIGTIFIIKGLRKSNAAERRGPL
# DRB1*0101 (DR1) = target: T2, DRB1*0101 (DR1) (Homo sapiens, UniProt P01903+P01911, A100R/D57E/F55L/F60I/F76Y/I96L/L162R/M171V/P40L/Q125E/R42F/V115G/Y59C); assay: Class II peptide-binding assay, DR1;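 note: competition assay: unlabeled test peptides inhibit binding of a radiolabeled probe peptide to purified DR, with half-maximal inhibition taken as an approximate dissociation constant Kd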
# T2 construct: used as sources of human HLA class II molecules; endogenous in cells; host or cells: LG2 (EBV-transformed homozygous B cell line)
# DRB1*0701 (DR7) = DRB1*0701 (DR7) (Homo sapiens, UniProt P01903+P01911, A100R/A102G/A103Q/D57E/D86V/E43K/F76Y/K127E/L162R/M171V/P40G/Q125H/Q99D/R33Q/R42Y/R54Q/S133A/S66F/T210M/V115G/Y107V/Y59L/Y89S); assay: Class II peptide-binding assay, DR7;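 note: unlabeled peptides compete with an iodinated probe peptide for binding to affinity-purified HLA-DR at neutral pH, DR amount titered to bind a small tracer fraction, IC50 approximating Kd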
# DRB1*0401 (DR4w4) = target: T3, DRB1*0401 (DR4w4) (Homo sapiens, UniProt P01903+P01911, A100K/A169T/F76Y/I96L/K127E/L162R/M171V/N62H/P40V/Q125Y/R42H/S133A/S149N/S66Y/V115G/V209L/W38E); assay: Class II peptide-binding assay, DR4w4;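 note: unlabeled test peptides compete with a radiolabeled probe peptide for binding to affinity-purified HLA-DR, with DR amount titrated to capture a small fraction of label, IC50 approximating Kd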
# T3 construct: used as sources of human HLA class II molecules; endogenous in cells; host or cells: PREISS (EBV-transformed homozygous B cell line)
# Method: (§1) Class II peptide-binding assays. […] These assays were chosen as to be representative of the most common DR alleles.
# (§2) Radiolabeled peptides were iodinated using the chloramine-T method. […] In appropriate stoichiometric conditions, the IC50 of an unlabeled test peptide to the purified DR is a reasonable approximation of the affinity of interaction (Kd). Peptides were tested in two to four completely independent experiments. […] Final detergent concentration in the incubation mixture was 0.05% Nonidet P-40. Assays were performed at pH 7.0 with the exception of DR3, which was performed at pH 4.5, and DRw53, which was performed at pH 5.0.
# (§3) All subsequent inhibition and direct binding assays were the performed using these class II concentrations.
# DRB5*0101 (DR2w2a) = target: T4, DRB5*0101 (DR2w2a) (Homo sapiens, UniProt P01903+Q30154); assay: Class II peptide-binding assay, DR2w2a (DR2w2B2);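 note: competitive binding assay: unlabeled peptide inhibiting binding of a radiolabeled probe peptide to purified DR molecules at pH 7.0, IC50 approximating Kd, lower means stronger binding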
# T4 construct: used as sources of human HLA class II molecules; endogenous in cells; host or cells: GM3107 (EBV-transformed homozygous B cell line)
# Method: as §1, §2, §3
# DRB10404 (DR4w14) = target: T5, DRB10404 (DR4w14) (Homo sapiens, UniProt P01903+P01911, A100R/A169T/F76Y/I96L/K127E/L162R/M171V/N62H/P40V/Q125Y/R42H/S133A/S149N/S66Y/V209L/W38E); assay: Class II peptide-binding assay, DR4w14;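 note: unlabeled peptides compete with a radiolabeled probe for binding to affinity-purified HLA-DR, neutral pH, class II amount titrated to bind a small fraction of label, IC50 approximates Kd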
# T5 construct: used as sources of human HLA class II molecules; endogenous in cells; host or cells: BIN40 (EBV-transformed homozygous B cell line)
# Method: as §1
# In appropriate stoichiometric conditions, the IC50 of an unlabeled test peptide to the purified DR is a reasonable approximation of the affinity of interaction (Kd). Peptides were tested in two to four completely independent experiments. […] Final detergent concentration in the incubation mixture was 0.05% Nonidet P-40. Assays were performed at pH 7.0 with the exception of DR3, which was performed at pH 4.5, and DRw53, which was performed at pH 5.0.
# as §3
# [1] = read-out: DR5w11 nM (In IC50 Format), purified HLA DR5w11
# [2] = read-out: DR1 nM (In IC50 Format), purified HLA DR1
# [3] = read-out: DR7 nM (In IC50 Format), purified HLA DR7
# [4] = read-out: DR4w4 nM (In IC50 Format), purified HLA DR4w4
# [5] = read-out: DR2w2B2 nM (In IC50 Format), purified HLA DR2w2β2
# [6] = read-out: DR4w14 nM (In IC50 Format), purified HLA DR4w14
compound,measurement,setting,value
AAFAAAAAQRLFA-NH2 [Peptide 761.01],IC50,DRB1*1101 (DR5w11); [1],556 nM
same,IC50,DRB1*0101 (DR1); [2],2.3 nM
same,IC50,DRB1*0701 (DR7); [3],7.6 nM
same,IC50,DRB1*0401 (DR4w4); [4],30 nM
same,IC50,DRB5*0101 (DR2w2a); [5],1.2 nM
same,IC50,DRB10404 (DR4w14); [6],3330 nM
CPIAIMSALAMVYLGAKDS [Peptide 705.04],IC50,DRB1*1101 (DR5w11); [1],6670 nM
same,IC50,DRB1*0101 (DR1); [2],53.2 nM
same,IC50,DRB1*0701 (DR7); [3],1090 nM
same,IC50,DRB1*0401 (DR4w4); [4],882 nM
same,IC50,DRB5*0101 (DR2w2a); [5],408 nM
same,IC50,DRB10404 (DR4w14); [6],1140 nM
YARFQSQATLKAKT-NH2 [Peptide 717.53],IC50,DRB1*1101 (DR5w11); [1],20 nM
same,IC50,DRB1*0101 (DR1); [2],2 nM
same,IC50,DRB1*0701 (DR7); [3],3570 nM
same,IC50,DRB1*0401 (DR4w4); [4],9.2 nM
same,IC50,DRB5*0101 (DR2w2a); [5],167 nM
same,IC50,DRB10404 (DR4w14); [6],10.6 nM
ARRLKAIYARRLK [Peptide 640.04],IC50,"DRB1*1101 (DR5w11); read-out: In IC50 Format DR5w11, Table VIII",667 nM
same,IC50,"DRB1*0101 (DR1); read-out: In IC50 Format DR1, Table VIII",3.6 nM
same,IC50,"DRB1*0701 (DR7); read-out: In IC50 Format DR7, Table VIII",29.2 nM
same,IC50,"DRB1*0401 (DR4w4); read-out: In IC50 Format DR4w4, Table VIII",> 22500 nM
same,IC50,"DRB5*0101 (DR2w2a); read-out: In IC50 Format DR2w2β2, Table VIII",8.7 nM
same,IC50,"DRB10404 (DR4w14); read-out: In IC50 Format DR4w14, Table VIII",667 nM
YARFQSQTSLKAKT-NH2 [Peptide 717.31],IC50,DRB1*1101 (DR5w11); [1],20 nM
same,IC50,DRB1*0101 (DR1); [2],4.5 nM
same,IC50,DRB1*0701 (DR7); [3],676 nM
same,IC50,DRB1*0401 (DR4w4); [4],5.1 nM
same,IC50,DRB5*0101 (DR2w2a); [5],143 nM
same,IC50,DRB10404 (DR4w14); [6],10.6 nM
YARFQSLTTLKAKT-NH2 [Peptide 717.15],IC50,DRB1*1101 (DR5w11); [1],5.3 nM
same,IC50,DRB1*0101 (DR1); [2],1.2 nM
same,IC50,DRB1*0701 (DR7); [3],961 nM
same,IC50,DRB1*0401 (DR4w4); [4],2 nM
same,IC50,DRB5*0101 (DR2w2a); [5],23.8 nM
same,IC50,DRB10404 (DR4w14); [6],9.4 nM
YARFQSATTLKAKT-NH2 [Peptide 717.54],IC50,DRB1*1101 (DR5w11); [1],9.5 nM
same,IC50,DRB1*0101 (DR1); [2],4.6 nM
same,IC50,DRB1*0701 (DR7); [3],676 nM
same,IC50,DRB1*0401 (DR4w4); [4],4.1 nM
same,IC50,DRB5*0101 (DR2w2a); [5],60.6 nM
same,IC50,DRB10404 (DR4w14); [6],7.2 nM
YARFQSQTTLKART-NH2 [Peptide 717.25],IC50,DRB1*1101 (DR5w11); [1],13.3 nM
same,IC50,DRB1*0101 (DR1); [2],4.5 nM
same,IC50,DRB1*0701 (DR7); [3],4170 nM
same,IC50,DRB1*0401 (DR4w4); [4],1.2 nM
same,IC50,DRB5*0101 (DR2w2a); [5],64.5 nM
same,IC50,DRB10404 (DR4w14); [6],10.6 nM
YAAFQSQTTLKAKT-NH2 [Peptide 717.30],IC50,DRB1*1101 (DR5w11); [1],22.2 nM
same,IC50,DRB1*0101 (DR1); [2],8.7 nM
same,IC50,DRB1*0701 (DR7); [3],4170 nM
same,IC50,DRB1*0401 (DR4w4); [4],7.6 nM
same,IC50,DRB5*0101 (DR2w2a); [5],105 nM
same,IC50,DRB10404 (DR4w14); [6],7.5 nM
C[C@H](NC(=O)[C@H](C)NC(=O)[C@H](C)NC(=O)[C@H](Cc1ccc(O)cc1)NC(=O)[C@H](C)NC(=O)[C@@H](C)N)C(=O)N[C@@H](C)C(=O)N[C@H](C(=O)N[C@@H](C)C(=O)N[C@@H](CCCCN)C(=O)N[C@@H](C)C(=O)N[C@@H](C)C(=O)N[C@H](C)C(N)=O)[C@@H](C)O [Peptide 762.02] (H-[dA]AYAAAATAKAA[dA]-NH2),IC50,DRB1*1101 (DR5w11); [1],25.6 nM
same,IC50,DRB1*0101 (DR1); [2],1.7 nM
same,IC50,DRB1*0701 (DR7); [3],694 nM
same,IC50,DRB1*0401 (DR4w4); [4],2 nM
same,IC50,DRB5*0101 (DR2w2a); [5],105 nM
same,IC50,DRB10404 (DR4w14); [6],1430 nM
YIAFLKQATAKLAT [Peptide 723.01],IC50,DRB1*1101 (DR5w11); [1],30.5 nM
same,IC50,DRB1*0101 (DR1); [2],4.9 nM
same,IC50,DRB1*0701 (DR7); [3],15.6 nM
same,IC50,DRB1*0401 (DR4w4); [4],16.7 nM
same,IC50,DRB5*0101 (DR2w2a); [5],69 nM
same,IC50,DRB10404 (DR4w14); [6],746 nM
YARFQSQTYLKAKT-NH2 [Peptide 717.33],IC50,DRB1*1101 (DR5w11); [1],1540 nM
same,IC50,DRB1*0101 (DR1); [2],1670 nM
same,IC50,DRB1*0701 (DR7); [3],641 nM
same,IC50,DRB1*0401 (DR4w4); [4],187 nM
same,IC50,DRB5*0101 (DR2w2a); [5],256 nM
same,IC50,DRB10404 (DR4w14); [6],8330 nM
YARFNSQTTLKAKT-NH2 [Peptide 717.44],IC50,DRB1*1101 (DR5w11); [1],32.8 nM
same,IC50,DRB1*0101 (DR1); [2],5 nM
same,IC50,DRB1*0701 (DR7); [3],5000 nM
same,IC50,DRB1*0401 (DR4w4); [4],4.2 nM
same,IC50,DRB5*0101 (DR2w2a); [5],80 nM
same,IC50,DRB10404 (DR4w14); [6],7.4 nM
YARFQSQTTLKAKE-NH2 [Peptide 717.28],IC50,DRB1*1101 (DR5w11); [1],16.7 nM
same,IC50,DRB1*0101 (DR1); [2],4.5 nM
same,IC50,DRB1*0701 (DR7); [3],5000 nM
same,IC50,DRB1*0401 (DR4w4); [4],26.5 nM
same,IC50,DRB5*0101 (DR2w2a); [5],95.2 nM
same,IC50,DRB10404 (DR4w14); [6],12.8 nM
YARFQSQTTKKAKT-NH2 [Peptide 717.20],IC50,DRB1*1101 (DR5w11); [1],339 nM
same,IC50,DRB1*0101 (DR1); [2],11.1 nM
same,IC50,DRB1*0701 (DR7); [3],5000 nM
same,IC50,DRB1*0401 (DR4w4); [4],12.5 nM
same,IC50,DRB5*0101 (DR2w2a); [5],87 nM
same,IC50,DRB10404 (DR4w14); [6],200 nM

# Reference: EP1388586A2, “Identification of broadly reactive DR restricted epitopes” (priority 1998, dated 1999)
